Assay results as given in PubChem BioAssay (NCI).
Several values for one entry are separate records, joined by “and”; a condition that tells them apart may be missing. Equal values may be shown once.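 These data come from cells grown in 96-well plates and exposed to compound for 48 hours at five concentrations. GI50: concentration for 50% inhibition of growth. At the TGI there is no net growth.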

How the values were obtained:
Assay in all cases: NCI-60 cell line screen, 48 h
SK-MEL-2 melanoma = system: SK-MEL-2 melanoma
SN12C renal = system: SN12C renal
DU-145 prostate = system: DU-145 prostate
SNB-19 CNS = system: SNB-19 CNS
UACC-257 melanoma = system: UACC-257 melanoma
NCI/ADR-RES ovarian = system: NCI/ADR-RES ovarian
OVCAR-5 ovarian = system: OVCAR-5 ovarian
MALME-3M melanoma = system: MALME-3M melanoma
IGROV1 ovarian = system: IGROV1 ovarian
786-0 renal = system: 786-0 renal

SMILES	TGI (SK-MEL-2 melanoma)	TGI (SN12C renal)	TGI (DU-145 prostate) [µM]	TGI (SNB-19 CNS)	TGI (UACC-257 melanoma) [µM]	TGI (NCI/ADR-RES ovarian)	TGI (OVCAR-5 ovarian) [µM]	TGI (MALME-3M melanoma)	TGI (IGROV1 ovarian) [µM]	TGI (786-0 renal)	GI50 (SK-MEL-2 melanoma) [µM]	GI50 (SN12C renal) [µM]	GI50 (DU-145 prostate)	GI50 (SNB-19 CNS)	GI50 (UACC-257 melanoma)	GI50 (NCI/ADR-RES ovarian) [µM]	GI50 (OVCAR-5 ovarian) [µM]	GI50 (MALME-3M melanoma)	GI50 (IGROV1 ovarian) [µM]	GI50 (786-0 renal)
CCOC(=O)c1cc2cc3c4c(c2oc1=O)CCCN4CCC3	> 100 µM	> 100 µM	> 100	> 100 µM	> 100	72.9 µM	> 100	> 100 µM	> 100	> 100 µM										
CC(=O)Oc1ccc(C23c4ccccc4C2(OC(C)=O)c2cc(OC(C)=O)ccc23)cc1 (stereo not drawn)	94.3 µM	20.2 µM	20.7	15.5 µM	60.8	10.2 µM	18	27.3 µM	27.2	20.5 µM	27.7	5.37	6.88 µM	4.64 µM	22.9 µM	2.82	5.54	9.61 µM	5.86	6.56 µM
O=C(O)c1ccc(CI)cc1	48.7 µM	34.7 µM	35.9	31.9 µM	38.9	34.8 µM	34.5	23.3 µM	38.2	10.8 µM										
O=S(=O)(NC1=NCCN1C(=S)SN1CCn2c1nsc2=S)c1cccc2ccccc12	44.1 µM	37.6 µM	49.2	> 100 µM	97.2	> 100 µM	> 100	57.4 µM	32.6	72.6 µM	17.5	17.2	19.3 µM	62.3 µM	24.3 µM	45.5	61	12.3 µM	10	23.9 µM
CCCCCCCCOC(=O)CC[C@@H](C)[C@H]1CC[C@H]2[C@@H]3[C@H](OC(=O)CCN)C[C@@H]4C[C@H](OC(=O)CCN)CC[C@]4(C)[C@H]3C[C@H](OC(=O)CCN)[C@]12C	18.7 µM	22.2 µM	9.7	13.8 µM	16.5	37.8 µM	10.1	5.86 µM	9.1	37.1 µM	4.88	6.62	3.4 µM	3.48 µM	3.84 µM	17.2	3.24	2.58 µM	3.24	15 µM
O=S(=O)(NCCNc1nccc(-c2c(-c3ccc(F)c(O)c3)nc3sccn23)n1)c1ccc(F)cc1	12.9 µM	71.5 µM	29.2	> 100 µM	18.3	> 100 µM	85.7	1.37 µM	7.96	> 100 µM	1.87	2.83	3.47 µM	4.26 µM	1.71 µM	8.5	4.37	0.232 µM	2.43	3.21 µM
CS(=O)(=O)CCNCc1cc(-c2cc3c(Nc4ccc(OCc5cccc(F)c5)c(Cl)c4)ncnc3s2)cs1	> 25 µM	> 25 µM	> 25	> 25 µM	> 25	> 25 µM	> 25	> 25 µM	> 25	> 18.7 µM	12.8	15.3	13.3 µM	24.6 µM	12.9 µM	11.3	13.5	19.1 µM	5.61	6.44 µM
COc1cc2ncn(-c3cc(OCc4ccccc4C(F)(F)F)c(C(=O)N(C)C)s3)c2cc1OC	> 25 µM	> 25 µM	> 25	> 25 µM	> 25	> 25 µM	> 25	> 25 µM	> 25	> 25 µM	> 20.2	24.6	> 25 µM	> 25 µM	> 25 µM	> 17	> 25	> 25 µM	> 25	> 25 µM
NCCSSCCN	> 100 µM	> 100 µM	> 100	> 100 µM	> 100	> 100 µM	> 100	> 100 µM	> 100	> 100 µM					> 100 µM and 18.2 µM					
CN(CCCCCl)P(=O)(OCCS(=O)(=O)CC(NC(=O)CCC(N)C(=O)O)C(=O)NC(C(=O)O)c1ccccc1)OCC1OC(n2ccc(N)nc2=O)C(F)(F)C1O (stereo not drawn)	> 100 µM	> 50.9 µM	25.9	> 100 µM	> 100	> 62.8 µM	> 100	> 100 µM	25.9		> 63.7	0.59	0.0359 µM	0.143 µM	25 µM	0.0664	0.872	3.06 µM	0.0581	0.02 µM
O=[N+]([O-])c1cc(Cl)c2[nH]c3c(Cl)cc([N+](=O)[O-])cc3c2c1	2.19 µM	> 100 µM	> 100	> 100 µM	0.996		> 29.5	4.04 µM	> 100	16.7 µM	0.347	0.296	0.508 µM	0.357 µM	0.159 µM	0.345	1.33	0.265 µM	0.471	0.294 µM
C=CCn1c(C)nc2ccc(Nc3nc(Nc4ccc(F)cc4)nc4ccccc34)cc21	11.4 µM	15.1 µM	22.8	23.8 µM	29.9	37.7 µM	26.6	35.7 µM	27.2	23.8 µM	3.16	2.78	8.63 µM	9 µM	13.1 µM	4.01	11.6	13.1 µM	6.09	7.44 µM
CC1CCC2(NC1)OC1CC3C4CC=C5CC(O)CCC5(C)C4CCC3(C)C1C2C (stereo not drawn)	> 100 µM and 45.4 µM	50.8 µM and 38.4 µM	> 100	99.5 µM and 62.1 µM	> 100	51.3 µM and > 57.1 µM	> 100	> 100 µM and 34.3 µM	> 100	30.1 µM and 11.9 µM			94.2 µM and 35.3 µM	18.9 µM and 6.38 µM				34.1 µM and 13.5 µM		14.5 µM and 3.24 µM
